From ChEMBL document CHEMBL1201862, “PubChem BioAssay data set” (2004)
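Exposure lasted 48 hours, with cells grown in 96-well plates and compounds tested at five concentrations. GI50 marks 50% less growth.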 Calls of active or inactive are those of the source. No stated cut-off is given here; in the data, active = GI50 up to about 1.1 µM and inactive = higher.

What was measured:
Test in all cases: growth of human tumour cells (NCI), 48 h
[1] = test system: A498
[2] = test system: A549
[3] = test system: HOP-92
[4] = test system: KM-20L2
[5] = test system: LOX IMVI
[6] = test system: MOLT-4
[7] = test system: NCI-H460
[8] = test system: NCI-H522
[9] = test system: OVCAR-8
[10] = test system: SF-268
[11] = test system: SK-MEL-2
[12] = test system: SNB-75
[13] = test system: U-251
[14] = test system: UACC-62
[15] = test system: DU-145
[16] = test system: MCF7
[17] = test system: MDA-N
[18] = test system: NCI/ADR-RES
[19] = test system: T47D

Structure (SMILES) | GI50 [1] | GI50 [2] | GI50 [3] | GI50 [4] | GI50 [5] | GI50 [6] | GI50 [7] | GI50 [8] | GI50 [9] | GI50 [10] | GI50 [11] | GI50 [12] | GI50 [13] | GI50 [14] | GI50 [15] | GI50 [16] | GI50 [17] | GI50 [18] | GI50 [19]
COc1ccc(OC)c(NCC#N)c1 | > 100 µM (inactive) | > 100 µM (inactive) | > 100 µM (inactive) | > 100 µM (inactive) | > 100 µM (inactive) | > 100 µM (inactive) | > 100 µM (inactive) | > 100 µM (inactive) | > 100 µM (inactive) | > 100 µM (inactive) | > 100 µM (inactive) | > 100 µM (inactive) | > 100 µM (inactive) | > 100 µM (inactive) | – | – | – | – | –
Clc1ccc(SCCSCCCCCCCCCCSCCSc2ccc(Cl)cc2)cc1 | > 100 µM (inactive) | > 100 µM (inactive) | > 100 µM (inactive) | > 100 µM (inactive) | > 100 µM (inactive) | > 100 µM (inactive) | > 100 µM (inactive) | > 100 µM (inactive) | > 100 µM (inactive) | > 100 µM (inactive) | > 100 µM (inactive) | > 100 µM (inactive) | > 100 µM (inactive) | > 100 µM (inactive) | – | – | – | – | –
Cc1ccc(/N=N/c2ccc(O)c(CN(C)C)c2)cc1C | 22.3 µM (inactive) | 34.7 µM (inactive) | 26.8 µM (inactive) | – | 10.5 µM (inactive) | 16.6 µM (inactive) | 19.1 µM (inactive) | 10.6 µM (inactive) | 37.2 µM (inactive) | 27.9 µM (inactive) | 16.2 µM (inactive) | 21.9 µM (inactive) | 34.6 µM (inactive) | 17.1 µM (inactive) | 29.5 µM (inactive) | 35.3 µM (inactive) | 38.9 µM (inactive) | 16 µM (inactive) | 14 µM (inactive)
Cl[Si]1(Cl)Oc2ccccc2O[Si](Cl)(Cl)Oc2ccccc2O1 | 36.2 µM (inactive) | 14.3 µM (inactive) | 17.7 µM (inactive) | 27.1 µM (inactive) | 9.14 µM (inactive) | 3.25 µM (inactive) | 6.9 µM (inactive) | 1.53 µM (inactive) | 30.5 µM (inactive) | 15 µM (inactive) | 20.5 µM (inactive) | 19.9 µM (inactive) | 28.1 µM (inactive) | 5.08 µM (inactive) | – | – | – | – | –
Clc1ccc(C(c2ccc(Cl)cc2)N2CCNCC2)cc1 | 1.78 µM (inactive) | 2.74 µM (inactive) | 3.01 µM (inactive) | – | 1.92 µM (inactive) | 1.87 µM (inactive) | 2.05 µM (inactive) | 1.78 µM (inactive) | 2.07 µM (inactive) | 4.95 µM (inactive) | 1.85 µM (inactive) | 2.34 µM (inactive) | 2.02 µM (inactive) | 1.77 µM (inactive) | 2.47 µM (inactive) | 1.91 µM (inactive) | 1.89 µM (inactive) | 3.1 µM (inactive) | 2.04 µM (inactive)
CC(=O)OCC1=C(CCC#N)N2C(=O)C(NC(=O)Cc3cccs3)C2[S+]([O-])C1 (configuration not stated) | > 100 µM (inactive) | > 100 µM (inactive) | > 100 µM (inactive) | > 100 µM (inactive) | > 100 µM (inactive) | > 100 µM (inactive) | > 100 µM (inactive) | 44.6 µM (inactive) | > 100 µM (inactive) | > 100 µM (inactive) | > 100 µM (inactive) | > 100 µM (inactive) | > 100 µM (inactive) | > 100 µM (inactive) | – | – | – | – | –
O=C1CC2OCC=C3CN4CCC5(C(=O)O)C(N1)C2C3CC45 (configuration not stated) | > 100 µM (inactive) | > 100 µM (inactive) | > 100 µM (inactive) | – | > 100 µM (inactive) | > 100 µM (inactive) | > 100 µM (inactive) | > 100 µM (inactive) | > 100 µM (inactive) | > 100 µM (inactive) | > 100 µM (inactive) | > 100 µM (inactive) | > 100 µM (inactive) | > 100 µM (inactive) | > 100 µM (inactive) | > 100 µM (inactive) | > 100 µM (inactive) | > 100 µM (inactive) | > 100 µM (inactive)
CC(=O)Nc1ccc2c3c(cc(O)c2c1)N(C(=O)CCCCCC(=O)N1CC(CCl)c2c1cc(O)c1cc(NC(C)=O)ccc21)CC3CCl (configuration not stated) | 0.0109 µM (active) | 0.0176 µM (active) | < 0.01 µM (active) | – | < 0.01 µM (active) | < 0.01 µM (active) | < 0.01 µM (active) | < 0.01 µM (active) | < 0.0104 µM (active) | < 0.01 µM (active) | 0.0147 µM (active) | < 0.01 µM (active) | < 0.01 µM (active) | < 0.01 µM (active) | < 0.01 µM (active) | < 0.01 µM (active) | 0.0164 µM (active) | 1.38 µM (inactive) | < 0.01 µM (active)
O=C(O)c1cscc1Cc1cccs1 | > 100 µM (inactive) | > 100 µM (inactive) | > 100 µM (inactive) | – | > 100 µM (inactive) | > 100 µM (inactive) | > 100 µM (inactive) | > 100 µM (inactive) | > 100 µM (inactive) | > 100 µM (inactive) | > 100 µM (inactive) | 57.8 µM (inactive) | > 100 µM (inactive) | > 100 µM (inactive) | > 100 µM (inactive) | > 100 µM (inactive) | > 100 µM (inactive) | > 100 µM (inactive) | > 100 µM (inactive)
O=C1OC[C@H]2[C@@H]1[C@H]1O[C@@H]2C2=C(CCC2)C1=O | > 100 µM (inactive) | > 100 µM (inactive) | > 100 µM (inactive) | – | > 100 µM (inactive) | 1.11 µM (active) | > 100 µM (inactive) | > 100 µM (inactive) | > 100 µM (inactive) | > 100 µM (inactive) | > 100 µM (inactive) | > 100 µM (inactive) | > 100 µM (inactive) | > 100 µM (inactive) | > 100 µM (inactive) | > 100 µM (inactive) | > 100 µM (inactive) | > 100 µM (inactive) | > 100 µM (inactive)
CC1=C(CCC(C)CO)O[C@H]2C[C@H]3[C@@H]4CC[C@H]5C[C@@H](O)CC[C@]5(C)[C@H]4CC(=O)[C@]3(C)[C@@H]12 (some centres not stated) | 20.3 µM (inactive) | 13.8 µM (inactive) | 23.9 µM (inactive) | – | 12.7 µM (inactive) | 3.61 µM (inactive) | 6.87 µM (inactive) | 9.62 µM (inactive) | 11.7 µM (inactive) | 19.1 µM (inactive) | 11.7 µM (inactive) | 20.6 µM (inactive) | 18 µM (inactive) | 6.17 µM (inactive) | 20.6 µM (inactive) | 23.6 µM (inactive) | 15.6 µM (inactive) | 9.48 µM (inactive) | 7.03 µM (inactive)
Nc1nc(SCC(=O)O)nc(O)c1N | > 100 µM (inactive) | > 100 µM (inactive) | > 100 µM (inactive) | – | 20.9 µM (inactive) | 37.6 µM (inactive) | > 100 µM (inactive) | > 100 µM (inactive) | 78.5 µM (inactive) | > 100 µM (inactive) | > 100 µM (inactive) | 50.2 µM (inactive) | > 100 µM (inactive) | > 100 µM (inactive) | > 100 µM (inactive) | > 100 µM (inactive) | 33.2 µM (inactive) | > 100 µM (inactive) | > 100 µM (inactive)
Fc1ccc(Nc2nc(Cl)c3nc[nH]c3n2)cc1Cl | > 100 µM (inactive) | > 100 µM (inactive) | > 100 µM (inactive) | – | 75.3 µM (inactive) | > 100 µM (inactive) | 58.9 µM (inactive) | 43.5 µM (inactive) | 24.9 µM (inactive) | 35.6 µM (inactive) | > 100 µM (inactive) | 41.4 µM (inactive) | 74.6 µM (inactive) | > 100 µM (inactive) | 87.3 µM (inactive) | 98.9 µM (inactive) | > 100 µM (inactive) | 37.8 µM (inactive) | 38.5 µM (inactive)
CC1CN=C(Nc2ccccc2)S1 (configuration not stated) | > 100 µM (inactive) | > 100 µM (inactive) | > 100 µM (inactive) | – | > 100 µM (inactive) | > 100 µM (inactive) | > 100 µM (inactive) | > 100 µM (inactive) | > 100 µM (inactive) | > 100 µM (inactive) | > 100 µM (inactive) | > 100 µM (inactive) | > 100 µM (inactive) | > 100 µM (inactive) | > 100 µM (inactive) | > 100 µM (inactive) | > 100 µM (inactive) | > 100 µM (inactive) | > 100 µM (inactive)
CO[C@@H]1C[C@H](OC(N)=O)[C@@H]2C=C[C@@H]3/C=C(C)/C=C/[C@@H](C)[C@H](/C(C)=C/[C@@H](C)NC(C)=O)OC(=O)/C=C/C=C(C)\C=C\[C@]3(C)[C@@H]2C1 [SUPERSTOLIDE B] | < 0.005 µM (active) | < 0.005 µM (active) | < 0.005 µM (active) | – | < 0.005 µM (active) | 0.31 µM (active) | < 0.005 µM (active) | < 0.005 µM (active) | 0.00607 µM (active) | 0.0724 µM (active) | 0.319 µM (active) | < 0.005 µM (active) | < 0.005 µM (active) | < 0.005 µM (active) | < 0.005 µM (active) | 0.00693 µM (active) | < 0.005 µM (active) | < 0.005 µM (active) | < 0.005 µM (active)
C=CCC1[C@@H](C(C)(C)C(C(C)=O)C(=O)C(=O)OC)OC(C(C)(C)C)N1C(=O)OC (some centres not stated) | > 100 µM (inactive) | > 100 µM (inactive) | 48.5 µM (inactive) | > 100 µM (inactive) | – | 24.6 µM (inactive) | > 100 µM (inactive) | > 100 µM (inactive) | > 100 µM (inactive) | > 100 µM (inactive) | > 100 µM (inactive) | 80.4 µM (inactive) | > 100 µM (inactive) | > 100 µM (inactive) | – | – | – | – | –
